Reference: PMC11433573 (Marine Drugs, 2024)
Positions of bridges follow the written chain, without caps; N, C: chain ends. Non-standard residues stand in square brackets, D forms with d. Residues, ends and D or L forms follow the SMILES beside them. Hyp = O=C(O)[C@@H]1C[C@@H](O)CN1

Experiments:
Test in all cases: cell-based
[1] = molecular target: T1, rα3β2 nAChR (Rattus norvegicus, UniProt P04757+P12390); conditions: for inhibition at 10 µM: read-out: inhibition of rα3β2 at 10 μM
T1 construct: expressed in transfected cells; host or cells: Xenopus laevis oocytes injected with cRNA
T1 sequence (P04757 26-499): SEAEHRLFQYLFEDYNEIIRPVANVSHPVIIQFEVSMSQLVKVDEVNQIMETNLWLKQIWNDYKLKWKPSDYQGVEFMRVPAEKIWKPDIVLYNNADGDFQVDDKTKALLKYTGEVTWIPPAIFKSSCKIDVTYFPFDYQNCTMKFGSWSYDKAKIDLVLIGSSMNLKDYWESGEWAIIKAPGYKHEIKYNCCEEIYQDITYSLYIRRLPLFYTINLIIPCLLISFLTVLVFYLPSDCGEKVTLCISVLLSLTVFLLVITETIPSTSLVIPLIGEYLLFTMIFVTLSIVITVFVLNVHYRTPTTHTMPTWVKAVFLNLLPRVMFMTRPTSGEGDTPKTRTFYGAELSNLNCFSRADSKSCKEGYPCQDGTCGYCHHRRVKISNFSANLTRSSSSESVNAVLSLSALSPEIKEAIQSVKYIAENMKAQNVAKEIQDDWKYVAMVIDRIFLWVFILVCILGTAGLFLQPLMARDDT
T1 sequence (P12390 25-500): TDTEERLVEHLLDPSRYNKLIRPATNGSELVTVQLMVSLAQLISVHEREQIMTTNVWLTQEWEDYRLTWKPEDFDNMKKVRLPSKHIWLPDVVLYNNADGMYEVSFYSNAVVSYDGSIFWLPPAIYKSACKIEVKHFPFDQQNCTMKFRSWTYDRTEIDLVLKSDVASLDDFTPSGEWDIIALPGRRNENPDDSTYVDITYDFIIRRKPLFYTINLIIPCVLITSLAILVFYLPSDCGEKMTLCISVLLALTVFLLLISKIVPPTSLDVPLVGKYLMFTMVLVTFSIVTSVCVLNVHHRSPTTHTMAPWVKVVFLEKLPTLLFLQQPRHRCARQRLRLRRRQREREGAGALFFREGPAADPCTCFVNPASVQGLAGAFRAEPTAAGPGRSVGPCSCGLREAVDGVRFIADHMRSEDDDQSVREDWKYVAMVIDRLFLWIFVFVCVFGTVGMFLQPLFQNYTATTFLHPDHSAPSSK

[2] = molecular target: T2, rα3β4 nAChR (Rattus norvegicus, UniProt P04757+P12392); conditions: for inhibition at 10 µM: read-out: inhibition of rα3β4 at 10 μM
T2 construct: expressed in transfected cells; host or cells: Xenopus laevis oocytes injected with cRNA
T2 sequence (P04757 26-499): as the sequence (P04757 26-499) above
T2 sequence (P12392 22-495 limits assumed): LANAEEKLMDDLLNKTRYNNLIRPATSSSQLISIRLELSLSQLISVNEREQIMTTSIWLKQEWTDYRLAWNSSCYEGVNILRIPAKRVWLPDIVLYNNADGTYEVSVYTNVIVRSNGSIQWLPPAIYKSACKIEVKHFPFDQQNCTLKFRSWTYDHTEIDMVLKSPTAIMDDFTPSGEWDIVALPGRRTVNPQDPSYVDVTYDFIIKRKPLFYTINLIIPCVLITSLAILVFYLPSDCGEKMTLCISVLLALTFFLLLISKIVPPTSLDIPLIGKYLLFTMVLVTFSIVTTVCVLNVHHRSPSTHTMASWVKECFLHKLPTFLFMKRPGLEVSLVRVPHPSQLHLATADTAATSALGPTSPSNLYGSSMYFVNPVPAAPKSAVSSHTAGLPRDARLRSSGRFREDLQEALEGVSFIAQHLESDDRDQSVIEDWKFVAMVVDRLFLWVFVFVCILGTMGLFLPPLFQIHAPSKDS

[3] = molecular target: T3, rα7 nAChR (Rattus norvegicus, UniProt Q05941)
T3 construct: expressed in transfected cells; host or cells: Xenopus laevis oocytes injected with cRNA
T3 sequence (Q05941 23-502): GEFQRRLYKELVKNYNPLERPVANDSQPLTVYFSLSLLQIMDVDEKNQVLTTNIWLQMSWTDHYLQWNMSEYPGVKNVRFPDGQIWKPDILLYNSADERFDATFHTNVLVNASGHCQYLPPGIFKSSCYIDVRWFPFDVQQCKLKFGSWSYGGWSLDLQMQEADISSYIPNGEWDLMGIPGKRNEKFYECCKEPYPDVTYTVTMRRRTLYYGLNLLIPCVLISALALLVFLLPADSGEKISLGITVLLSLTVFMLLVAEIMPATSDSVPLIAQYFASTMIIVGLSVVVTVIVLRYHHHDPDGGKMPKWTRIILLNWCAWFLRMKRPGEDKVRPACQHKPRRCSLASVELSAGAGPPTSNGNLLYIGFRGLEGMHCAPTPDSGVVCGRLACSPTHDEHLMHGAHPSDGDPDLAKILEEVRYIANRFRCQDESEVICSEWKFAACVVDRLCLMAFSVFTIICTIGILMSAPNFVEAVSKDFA

| SMILES | IC50 [1] | IC50 [2] | IC50 [3] | inhibition at 10 µM [1] | inhibition at 10 µM [2] |
| --- | --- | --- | --- | --- | --- |
| CC[C@H](C)[C@@H]1NC(=O)[C@H](Cc2c[nH]cn2)NC(=O)[C@@H]2CCCN2C(=O)[C@H](CC(N)=O)NC(=O)[C@H](CC(N)=O)NC(=O)[C@H](C(C)C)NC(=O)[C@H](CC(N)=O)NC(=O)[C@@H]2CSSC[C@H](NC(=O)CN)C(=O)N[C@@H](CSSC[C@@H](C(N)=O)NC1=O)C(=O)N[C@@H](CO)C(=O)N[C@@H](Cc1c[nH]cn1)C(=O)N1CCC[C@H]1C(=O)NCC(=O)N2 [[A7G]RegIIA] (H-GCCSHPGCNVNNPHIC-NH2; disulfide 2-8, 3-16) | > 10 µM | 0.964 µM | 0.6 µM |  |  |
| CC[C@H](C)[C@@H]1NC(=O)[C@H](Cc2cnc[nH]2)NC(=O)[C@@H]2CCCN2C(=O)[C@H](CC(N)=O)NC(=O)[C@H](CC(N)=O)NC(=O)[C@H](C(C)C)NC(=O)[C@H](CC(N)=O)NC(=O)[C@@H]2CSSC[C@H](NC(=O)CN)C(=O)N[C@@H](CSSC[C@@H](C(N)=O)NC1=O)C(=O)N[C@@H](CO)C(=O)N[C@@H](Cc1cnc[nH]1)C(=O)N1CCC[C@H]1C(=O)N[C@@H](C)C(=O)N2 [RegIIA, reference compound] (H-GCCSHPACNVNNPHIC-NH2; disulfide 2-8, 3-16) | 0.036 µM | 0.102 µM | 0.043 µM |  |  |
| CC[C@H](C)[C@@H]1NC(=O)[C@H](Cc2c[nH]cn2)NC(=O)[C@@H]2CCCN2C(=O)[C@H](CC(N)=O)NC(=O)[C@H](CC(N)=O)NC(=O)[C@H](C(C)C)NC(=O)[C@H](CC(N)=O)NC(=O)[C@@H]2CSSC[C@H](NC(=O)CN)C(=O)N[C@@H](CSSC[C@@H](C(N)=O)NC1=O)C(=O)N[C@@H](C)C(=O)N[C@@H](Cc1c[nH]cn1)C(=O)N1CCC[C@H]1C(=O)N[C@@H](C)C(=O)N2 [[S4A]RegIIA] (H-GCCAHPACNVNNPHIC-NH2; disulfide 2-8, 3-16) | 0.034 µM | 0.095 µM | 0.039 µM |  |  |
| CC[C@H](C)[C@@H]1NC(=O)[C@H](Cc2c[nH]cn2)NC(=O)[C@@H]2CCCN2C(=O)[C@H](CC(N)=O)NC(=O)[C@H](CC(N)=O)NC(=O)[C@H](C(C)C)NC(=O)[C@H](CC(N)=O)NC(=O)[C@@H]2CSSC[C@H](NC(=O)CN)C(=O)N[C@@H](CSSC[C@@H](C(N)=O)NC1=O)C(=O)N[C@@H](CO)C(=O)N[C@@H](CCC(=O)O)C(=O)N1CCC[C@H]1C(=O)N[C@@H](C)C(=O)N2 [[H5E]RegIIA] (H-GCCSEPACNVNNPHIC-NH2; disulfide 2-8, 3-16) | > 10 µM | > 10 µM | 0.441 µM |  |  |
| CC[C@H](C)[C@@H]1NC(=O)[C@H](Cc2c[nH]cn2)NC(=O)[C@@H]2CCCN2C(=O)[C@H](CC(N)=O)NC(=O)[C@H](CC(N)=O)NC(=O)[C@H](C(C)C)NC(=O)[C@H](CC(N)=O)NC(=O)[C@@H]2CSSC[C@H](NC(=O)CN)C(=O)N[C@@H](CSSC[C@@H](C(N)=O)NC1=O)C(=O)N[C@@H](CO)C(=O)N[C@@H](CO)C(=O)N1CCC[C@H]1C(=O)N[C@@H](C)C(=O)N2 [[H5S]RegIIA] (H-GCCSSPACNVNNPHIC-NH2; disulfide 2-8, 3-16) | > 10 µM | 5.73 µM | 0.1 µM |  |  |
| CC[C@H](C)[C@@H]1NC(=O)[C@H](Cc2c[nH]cn2)NC(=O)[C@@H]2CCCN2C(=O)[C@H](CC(N)=O)NC(=O)[C@H](CC(N)=O)NC(=O)[C@H](C(C)C)NC(=O)[C@H](CC(N)=O)NC(=O)[C@@H]2CSSC[C@H](NC(=O)CN)C(=O)N[C@@H](CSSC[C@@H](C(N)=O)NC1=O)C(=O)N[C@@H](CO)C(=O)N[C@@H](Cc1c[nH]cn1)C(=O)N1C[C@H](O)C[C@H]1C(=O)N[C@@H](C)C(=O)N2 [[P6O]RegIIA] (H-GCCSH[Hyp]ACNVNNPHIC-NH2; disulfide 2-8, 3-16) | > 10 µM | > 10 µM | > 10 µM |  |  |
| CC[C@H](C)[C@@H]1NC(=O)[C@H](Cc2c[nH]cn2)NC(=O)[C@@H]2CCCN2C(=O)[C@H](CC(N)=O)NC(=O)[C@H](CC(N)=O)NC(=O)[C@H](C(C)C)NC(=O)[C@H](CC(N)=O)NC(=O)[C@@H]2CSSC[C@H](NC(=O)CN)C(=O)N[C@@H](CSSC[C@@H](C(N)=O)NC1=O)C(=O)N[C@@H](CO)C(=O)N[C@@H](CC(C)C)C(=O)N1CCC[C@H]1C(=O)N[C@@H](C)C(=O)N2 [[H5L]RegIIA] (H-GCCSLPACNVNNPHIC-NH2; disulfide 2-8, 3-16) | > 10 µM | > 10 µM | > 10 µM |  |  |
| CC[C@H](C)[C@@H]1NC(=O)[C@H](Cc2c[nH]cn2)NC(=O)[C@@H]2CCCN2C(=O)[C@H](CC(N)=O)NC(=O)[C@H](CC(N)=O)NC(=O)[C@H](C(C)C)NC(=O)[C@H](CC(N)=O)NC(=O)[C@@H]2CSSC[C@H](NC(=O)CN)C(=O)N[C@@H](CSSC[C@@H](C(N)=O)NC1=O)C(=O)N[C@@H](CO)C(=O)N[C@@H](C)C(=O)N1CCC[C@H]1C(=O)N[C@@H](C)C(=O)N2 [[H5A]RegIIA] (H-GCCSAPACNVNNPHIC-NH2; disulfide 2-8, 3-16) | > 10 µM | > 10 µM | 0.446 µM | < 50% | < 50% |
| CC[C@H](C)[C@@H]1NC(=O)[C@H](Cc2c[nH]cn2)NC(=O)[C@@H]2CCCN2C(=O)[C@H](CC(N)=O)NC(=O)[C@H](CC(N)=O)NC(=O)[C@H](C(C)C)NC(=O)[C@H](CC(N)=O)NC(=O)[C@@H]2CSSC[C@H](NC(=O)CN)C(=O)N[C@@H](CSSC[C@@H](C(N)=O)NC1=O)C(=O)N[C@@H](CO)C(=O)N[C@@H](C(C)C)C(=O)N1CCC[C@H]1C(=O)N[C@@H](C)C(=O)N2 [[H5V]RegIIA] (H-GCCSVPACNVNNPHIC-NH2; disulfide 2-8, 3-16) | > 10 µM | 8.8 µM | 0.097 µM |  |  |
| CC[C@H](C)[C@@H]1NC(=O)[C@H](Cc2c[nH]cn2)NC(=O)[C@@H]2CCCN2C(=O)[C@H](CC(N)=O)NC(=O)[C@H](CC(N)=O)NC(=O)[C@H](C(C)C)NC(=O)[C@H](CC(N)=O)NC(=O)[C@@H]2CSSC[C@H](NC(=O)CN)C(=O)N[C@@H](CSSC[C@@H](C(N)=O)NC1=O)C(=O)N[C@@H](CO)C(=O)NCC(=O)N1CCC[C@H]1C(=O)N[C@@H](C)C(=O)N2 [[H5G]RegIIA] (H-GCCSGPACNVNNPHIC-NH2; disulfide 2-8, 3-16) | > 10 µM | > 10 µM | 3.54 µM |  |  |
| CC[C@H](C)[C@@H]1NC(=O)[C@H](Cc2c[nH]cn2)NC(=O)[C@@H]2CCCN2C(=O)[C@H](CC(N)=O)NC(=O)[C@H](CC(N)=O)NC(=O)[C@H](C(C)C)NC(=O)[C@H](CC(N)=O)NC(=O)[C@@H]2CSSC[C@H](NC(=O)[C@H](C)N)C(=O)N[C@@H](CSSC[C@@H](C(N)=O)NC1=O)C(=O)N[C@@H](CO)C(=O)N[C@@H](Cc1c[nH]cn1)C(=O)N1CCC[C@H]1C(=O)N[C@@H](C)C(=O)N2 [[G1A]RegIIA] (H-ACCSHPACNVNNPHIC-NH2; disulfide 2-8, 3-16) | 0.09 µM | 0.132 µM | 0.286 µM |  |  |
| CC[C@H](C)[C@@H]1NC(=O)[C@H](Cc2c[nH]cn2)NC(=O)[C@@H]2CCCN2C(=O)[C@H](CC(N)=O)NC(=O)[C@H](CC(N)=O)NC(=O)[C@H](C(C)C)NC(=O)[C@H](CC(N)=O)NC(=O)[C@@H]2CSSC[C@H](NC(=O)CN)C(=O)N[C@@H](CSSC[C@@H](C(N)=O)NC1=O)C(=O)N[C@@H](CO)C(=O)N[C@@H](Cc1c[nH]cn1)C(=O)N[C@@H](C)C(=O)N[C@@H](C)C(=O)N2 [[P6A]RegIIA] (H-GCCSHAACNVNNPHIC-NH2; disulfide 2-8, 3-16) | > 10 µM | > 10 µM | 0.459 µM | < 50% | < 50% |
